Measurements reported in patent US4755610A, “Hapalindoles” (priority 1986, dated 1988).
≈ marks a conversion by molar mass, not a printed value.

How the values were obtained:
Assay type in all cases: cell-based
[1] = system: Klebsiella pneumoniae X68; assay: In vitro antibacterial activity, standard agar-dilution assay; settings: Klebsiella pneumoniae X68; agar dilution; read-out: MIC
Escherichia coli TEM = assay: as above
[2] = system: Staphylococcus aureus X400; assay: microbe, parasite or virus in culture
[3] = system: Staphylococcus aureus V41; assay: In vitro antibacterial activity, standard agar-dilution assay; settings: Staphylococcus aureus V41; agar dilution; read-out: MIC
[4] = system: Staphylococcus aureus X1.1; assay: as above; settings: Staphylococcus aureus X1.1; agar dilution; read-out: MIC
[5] = system: Haemophilus influenzae 76; assay: as above; settings: Haemophilus influenzae 76; agar dilution; read-out: MIC
[6] = system: Staphylococcus epidermidis 222; assay: as above; settings: Staphylococcus epidermidis 222; agar dilution; read-out: MIC
[7] = system: Staphylococcus epidermidis EPI1; assay: as above; settings: Staphylococcus epidermidis EPI1; agar dilution; read-out: MIC
[8] = system: Streptococcus pyogenes C203; assay: as above; settings: Streptococcus pyogenes C203; agar dilution; read-out: MIC
[9] = system: Klebsiella pneumoniae X26; assay: as above; settings: Klebsiella pneumoniae X26; agar dilution; read-out: MIC
[10] = system: Streptococcus pneumoniae Park 1; assay: as above; settings: PARK1; Streptococcus pneumoniae Park 1; agar dilution; read-out: MIC
[11] = system: Klebsiella pneumoniae KAE; assay: as above; settings: Klebsiella pneumoniae KAE; agar dilution; read-out: MIC
[12] = system: Staphylococcus aureus S13E; assay: microbe, parasite or virus in culture
Salmonella sp. X514 = assay: In vitro antibacterial activity, standard agar-dilution assay; settings: Salmonella sp. X514; agar dilution; read-out: MIC
Proteus morganii PR15 = assay: as above; settings: Morganella morganii; Proteus morganii PR15; agar dilution; read-out: MIC
[13] = system: Streptococcus faecium ATCC 9790; assay: as above; settings: Enterococcus faecium, ATCC9790; Streptococcus faecium ATCC 9790; agar dilution; read-out: MIC
Candida albicans = assay: In vitro antifungal activity, standard disc-plate assay; settings: disc-plate assay, read-out: MIC
[14] = system: Streptococcus sp group D 2041; assay: In vitro antibacterial activity, standard agar-dilution assay; settings: GROUPD2041; Streptococcus sp group D 2041; agar dilution; read-out: MIC
[15] = system: Trichophyton mentagrophytes; assay: In vitro antifungal activity, standard disc-plate assay; settings: disc-plate assay, read-out: MIC
Shigella sonnei N9 = assay: In vitro antibacterial activity, standard agar-dilution assay; settings: Shigella sonnei N9; agar dilution; read-out: MIC
[16] = system: Acinetobacter calcoaceticus AC12; assay: as above; settings: Acinetobacter calcoaceticus AC12; agar dilution; read-out: MIC
Escherichia coli N10 = assay: as above; settings: Escherichia coli N10; agar dilution; read-out: MIC
Escherichia coli EC14 = assay: as above; settings: Escherichia coli EC14; agar dilution; read-out: MIC
[17] = system: Haemophilus influenzae C.L.; assay: as above; settings: Haemophilus influenzae C.L.; agar dilution; read-out: MIC

SMILES | MIC [1] | MIC (Escherichia coli TEM) | MIC [2] | MIC [3] | MIC [4] | MIC [5] | MIC [6] | MIC [7] | MIC [8] | MIC [9] | MIC [10] | MIC [11] | MIC [12] | MIC (Salmonella sp. X514) | MIC (Proteus morganii PR15) | MIC [13] | MIC (Candida albicans) | MIC [14] | MIC [15] | MIC (Shigella sonnei N9) | other results
[C-]#[N+][C@@H]1[C@H]2c3c[nH]c4cccc(c34)C(C)(C)[C@H]2C[C@@H](Cl)[C@]1(C)C=C [Compound 1, hapalindole A] | > 64 µg/mL | 4 µg/mL (≈ 11.8 µM) | 4 µg/mL (≈ 11.8 µM) | 4 µg/mL (≈ 11.8 µM) | 4 µg/mL (≈ 11.8 µM) | 4 µg/mL (≈ 11.8 µM) | 0.06 µg/mL (≈ 0.177 µM) | 2 µg/mL (≈ 5.9 µM) | 2 µg/mL (≈ 5.9 µM) | 4 µg/mL (≈ 11.8 µM) | 16 µg/mL (≈ 47.2 µM) | > 64 µg/mL | 4 µg/mL (≈ 11.8 µM) | 8 µg/mL (≈ 23.6 µM) | 32 µg/mL (≈ 94.4 µM) | 16 µg/mL (≈ 47.2 µM) | 1.25 µg/mL (≈ 3.69 µM) | 16 µg/mL (≈ 47.2 µM) | 1.25 µg/mL (≈ 3.69 µM) | 8 µg/mL (≈ 23.6 µM) | MIC [16]: 2 µg/mL (≈ 5.9 µM); MIC (Escherichia coli N10): 4 µg/mL (≈ 11.8 µM); MIC (Escherichia coli EC14): 8 µg/mL (≈ 23.6 µM); MIC [17]: 4 µg/mL (≈ 11.8 µM)
C=C[C@@]1(C)[C@H](Cl)C[C@H]2[C@H](c3c[nH]c4cccc(c34)C2(C)C)[C@H]1N=C=S [Compound 2, Hapalindole B] | > 64 µg/mL | > 64 µg/mL | 2 µg/mL (≈ 5.39 µM) | 2 µg/mL (≈ 5.39 µM) | 2 µg/mL (≈ 5.39 µM) | > 64 µg/mL | 2 µg/mL (≈ 5.39 µM) | 2 µg/mL (≈ 5.39 µM) | 64 µg/mL (≈ 173 µM) | > 64 µg/mL | 64 µg/mL (≈ 173 µM) | > 64 µg/mL | 2 µg/mL (≈ 5.39 µM) | > 64 µg/mL | > 64 µg/mL | 4 µg/mL (≈ 10.8 µM) | > 20 µg/mL | 8 µg/mL (≈ 21.6 µM) | > 20 µg/mL | > 64 µg/mL | MIC [16]: > 64 µg/mL; MIC (Escherichia coli N10): > 64 µg/mL; MIC (Escherichia coli EC14): > 64 µg/mL; MIC [17]: > 64 µg/mL
[C-]#[N+][C@@H]1[C@H](c2c[nH]c3ccccc23)[C@@H](C(=C)C)CC[C@]1(C)C=C [Compound 3, Hapalindole C] | > 64 µg/mL | 64 µg/mL (≈ 210 µM) | 16 µg/mL (≈ 52.6 µM) | 16 µg/mL (≈ 52.6 µM) | 16 µg/mL (≈ 52.6 µM) | 16 µg/mL (≈ 52.6 µM) | 16 µg/mL (≈ 52.6 µM) | 8 µg/mL (≈ 26.3 µM) | > 64 µg/mL | > 64 µg/mL | > 64 µg/mL | > 64 µg/mL | 8 µg/mL (≈ 26.3 µM) | > 64 µg/mL | > 64 µg/mL | > 64 µg/mL | 0.625 µg/mL (≈ 2.05 µM) | > 64 µg/mL | 0.625 µg/mL (≈ 2.05 µM) | > 64 µg/mL | MIC [16]: 2 µg/mL (≈ 6.57 µM); MIC (Escherichia coli N10): > 64 µg/mL; MIC (Escherichia coli EC14): > 64 µg/mL; MIC [17]: 16 µg/mL (≈ 52.6 µM)
C=C[C@@]1(C)CC[C@H](C(=C)C)[C@@H](c2c[nH]c3ccccc23)[C@H]1N=C=S [Compound 4, Hapalindole D] | > 64 µg/mL | > 64 µg/mL | 8 µg/mL (≈ 23.8 µM) | 4 µg/mL (≈ 11.9 µM) | 4 µg/mL (≈ 11.9 µM) | > 64 µg/mL | 4 µg/mL (≈ 11.9 µM) | 8 µg/mL (≈ 23.8 µM) | > 64 µg/mL | > 64 µg/mL | > 64 µg/mL | > 64 µg/mL | 4 µg/mL (≈ 11.9 µM) | > 64 µg/mL | > 64 µg/mL | 8 µg/mL (≈ 23.8 µM) | > 20 µg/mL | 8 µg/mL (≈ 23.8 µM) | > 20 µg/mL | > 64 µg/mL | MIC [16]: > 64 µg/mL; MIC (Escherichia coli N10): > 64 µg/mL; MIC (Escherichia coli EC14): > 64 µg/mL; MIC [17]: > 64 µg/mL
